Data on 29 molecules can be found in paper PMC6696021, “Combined Ensemble Docking and Machine Learning in Identification of Therapeutic Agents with Potential Inhibitory Effect on Human CES1” (Molecules, 2019).

In general, IC50 refers to the concentration that inhibits the measured activity by half.

Where two headings read alike, the source gives them in different places.

The target in one data set is T1, Recombinant human CES1 (Homo sapiens, UniProt P23141).
T1 construct: purchased BD Gentest (Woburn, MA, US)
T1 sequence (P23141 18-567): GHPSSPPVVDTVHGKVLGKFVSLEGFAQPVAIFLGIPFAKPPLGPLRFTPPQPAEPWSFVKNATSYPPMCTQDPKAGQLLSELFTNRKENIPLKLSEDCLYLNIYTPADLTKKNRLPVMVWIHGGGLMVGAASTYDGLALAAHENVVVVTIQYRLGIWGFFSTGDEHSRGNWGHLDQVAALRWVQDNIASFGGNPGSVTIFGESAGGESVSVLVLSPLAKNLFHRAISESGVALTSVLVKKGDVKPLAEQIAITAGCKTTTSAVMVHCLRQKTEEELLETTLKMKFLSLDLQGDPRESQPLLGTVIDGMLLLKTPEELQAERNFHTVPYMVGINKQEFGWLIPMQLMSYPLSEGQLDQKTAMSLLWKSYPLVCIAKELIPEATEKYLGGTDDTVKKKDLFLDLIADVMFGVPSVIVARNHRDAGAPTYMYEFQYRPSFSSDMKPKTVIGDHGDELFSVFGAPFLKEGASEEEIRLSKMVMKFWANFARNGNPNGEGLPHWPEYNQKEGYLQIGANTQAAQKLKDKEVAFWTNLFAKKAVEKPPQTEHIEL
Briefly: In vitro assessment of CES1 inhibition (p-nitrophenyl acetate hydrolysis). In kind it is biochemical. To be noted: for inhibition at 600 µM: read-out: inhibition at max concentration.

The nature of data set [1]: Solubility in aqueous assay buffer. The class given is physicochemical. To be noted: pH 7.
Another data set has as its target CES1. Also on record: method as in earlier work. To be noted: Table S1, bioactivity from ChEMBL database; read-out: Ki_Nanomolar; cited from earlier work.
Setting [2] is: substrate p-nitrophenyl acetate 100 µM, 37 °C, 3 min, NS means Non-significant.
Setting [3] is: substrate p-nitrophenyl acetate 100 µM, 37 °C, 3 min, NS means Non-significant, read-out: IC50.

Take `O=C(O[C@H]1C[C@H]2CC[C@@H](C1)[N+]21CCCC1)C(O)(c1ccccc1)c1ccccc1` [Trospium]: on Recombinant human CES1, the inhibition at 600 µM turned out to be 30%. Also, the half-maximal inhibitory concentration (IC50) on Recombinant human CES1 (setting [2]) was above 600000 nM.
In the case of `CCCCC[C@H](O)CC[C@@H]1[C@H]2Cc3cccc(OCC(=O)O)c3C[C@H]2C[C@H]1O` [Treprostinil], the concentration for half-maximal inhibition (IC50) on Recombinant human CES1 (setting [3]) was 392000 nM.
Still for that read-out and setting: to `CN1[C@@H]2CC[C@H]1C[C@@H](OC(c1ccccc1)c1ccccc1)C2` [Benztropine] belongs 298000 nM.
For `C=CCN1CC[C@]23c4c5ccc(O)c4O[C@H]2C(=O)CC[C@@]3(O)[C@H]1C5` [Naloxone], the half-maximal inhibitory concentration (IC50) on Recombinant human CES1 was found to be 618000 nM.
As for `CC#CCC(C)[C@H](O)/C=C/[C@@H]1[C@H]2C/C(=C/CCCC(=O)O)C[C@H]2C[C@H]1O` (some centres unmarked) [Iloprost], on Recombinant human CES1 (setting [3]), the IC50 was determined as 367000 nM.
Take `C[C@H]1CN(C[C@H](Cc2ccccc2)C(=O)NCC(=O)O)CC[C@@]1(C)c1cccc(O)c1` [Alvimopan]: the “inhibition at the highest concentration” value on Recombinant human CES1 (highest concentration tested) was “no inhibition”. The IC50 at Recombinant human CES1 (setting [3]) is above 600000 nM.
In the case of `COc1ccc([C@@H]2Sc3ccccc3N(CCN(C)C)C(=O)[C@@H]2OC(C)=O)cc1` [Diltiazem], the IC50 on Recombinant human CES1 (setting [3]) worked out at 13900 nM.
Turning to `Oc1ccc2c3c1O[C@H]1[C@@H](O)CC[C@@]4(O)[C@@H](C2)N(CC2CCC2)CC[C@]314` [Nalbuphine], in data set [1], the “solubility in aqueous buffer” value is reported as “lacked the required solubility”.
As for `C[N+]1(C)CCCC(OC(=O)C(O)(c2ccccc2)c2ccccc2)C1` (centres unmarked) [Mepenzolate], the inhibition at 600 µM at Recombinant human CES1 (max concentration 600 µM) was around 15%. For the same molecule, the IC50 on Recombinant human CES1 (setting [2]) is above 600000 nM.
`O=C(Nc1cccc(C(=O)C(=O)c2ccccn2)c1)c1cccc(Cl)c1` [CHEMBL1630814]: the Ki on CES1 was 756 nM.
With `CCC(=O)C(=O)c1ccccc1` [CHEMBL1812860], the Ki on CES1 is 1550 nM.
Take `O=C(C(=O)c1c(Cl)c(Cl)c(Cl)c(Cl)c1Cl)c1c(F)c(F)c(F)c(F)c1F` [CHEMBL195713]: at CES1, the Ki is 1690 nM.
In the case of `Cc1ccc(C(=O)C(=O)c2ccc(Cl)cc2)cc1` [CHEMBL192252], the Ki at CES1 is 159 nM.
Turning to `O=C(C(=O)c1ccc(Br)s1)c1ccc(Br)s1` [CHEMBL192592], on CES1, the Ki is 142 nM.
Regarding `O=C(O)c1ccc(C(=O)C(=O)c2ccccc2)cc1` [CHEMBL370059], the Ki on CES1 was 524 nM.
Take `COc1ccc(C(=O)C(=O)c2ccc(OC)cc2)cc1` [CHEMBL191513]: at CES1, the Ki is 3400 nM.
On to `CC(C)(C)C1=CC(=O)C(=O)C(C(C)(C)C)=C1` [CHEMBL365161], for which the Ki at CES1 was 88.6 nM.
As to `O=C1C(=O)c2cccnc2-c2ncccc21` [CHEMBL235504], at CES1, the Ki is 5400 nM.
Consider `COC(OC)(C(=O)c1ccccc1)c1ccccc1` [CHEMBL364734], for which, on CES1, the Ki was 15300 nM.
Turning to `CCCCCCCCCCCCN1C(=O)C(=O)c2ccccc21` [CHEMBL222644], the Ki at CES1 is 10 nM.
`CCCCC(=O)C(C)=O` [CHEMBL364588]: on CES1, the Ki was 16900 nM.
With `CCCCCCCCCCS(=O)(=O)CC(O)(O)C(F)(F)F` [CHEMBL467451], on CES1, the Ki is 397 nM.
`CCCCCC(=O)C(=O)CCCCC` [CHEMBL1812856]: at CES1, the Ki was 3 nM.
For the molecule `O=C(Nc1cccc(C(=O)C(=O)c2ccccn2)c1)c1ccc(F)cc1` [CHEMBL1630816], the Ki at CES1 is 381 nM.
In the case of `CCCCCCCCS(=O)(=O)CC(O)(O)C(F)(F)F` [CHEMBL460807], the Ki on CES1 is 757 nM.
For the molecule `O=C1C(=O)N(CCBr)c2ccccc21` [CHEMBL223000], the Ki on CES1 is 290 nM.
With `O=S(=O)(Nc1ccc(NS(=O)(=O)c2ccc(Cl)cc2)cc1)c1ccc(Cl)cc1` [CHEMBL254426], at CES1, the Ki is 13700 nM.
`O=C(C(=O)c1ccc2ccccc2c1)c1ccc2ccccc2c1` [CHEMBL189162]: the Ki on CES1 was 256 nM.
Regarding `O=C(C(=O)c1ccc([N+](=O)[O-])cc1)c1ccccc1` [CHEMBL192589], the Ki at CES1 is 214 nM.
